Assay results published in patent publication US10590123B2, “Pesticidally active amide heterocyclic derivatives with sulphur containing substituents” (SYNGENTA PARTICIPATIONS AG, priority 2014, dated 2020).

Columns and labels:
Assay type in all cases: in vivo
[1] = system: Bemisia tabaci (Cotton White Fly); test: Example B6: Activity against Bemisia tabaci, sprayed cotton leaf discs; conditions: foliar, 144 h, application rate 200 ppm, adult white flies, 6 days after incubation
Description: Example B6: Activity Against Bemisia tabaci (Cotton White Fly)
Cotton leaf discs were placed on agar in 24-well microtiter plates and sprayed with aqueous test solutions prepared from 10′000 ppm DMSO stock solutions. After drying the leaf discs were infested with adult white flies. The samples were checked for mortality 6 days after incubation.

[2] = system: Plutella xylostella (Diamond Back Moth); test: Example B3: Activity against Plutella xylostella, artificial diet; conditions: 120 h, application rate 200 ppm, L2 larvae, 5 days after infestation, read-out: effect in at least one of the two categories (mortality or growth inhibition)
Description: Example B3: Activity Against Plutella xylostella (Diamond Back Moth)
(§1) 24-well microtiter plates with artificial diet were treated with aqueous test solutions prepared from 10′000 ppm DMSO stock solutions by pipetting. After drying, the plates were infested with L2 larvae (10 to 15 per well). The samples were assessed for mortality and growth inhibition in comparison to untreated samples 5 days after infestation.

[3] = system: Euschistus heros (Neotropical Brown Stink Bug); test: Example B7: Activity against Euschistus heros, sprayed soybean leaf; conditions: 120 h, application rate 200 ppm, N-2 nymphs, 5 days after infestation
Description: Example B7: Activity Against Euschistus heros (Neotropical Brown Stink Bug)
Soybean leaf on agar in 24-well microtiter plates were sprayed with aqueous test solutions prepared from 10′000 ppm DMSO stock solutions. After drying the leaf were infested with N-2 nymphs. The samples were assessed for mortality 5 days after infestation.

[4] = system: Spodoptera littoralis (Egyptian Cotton Leaf Worm); test: Example B1: Activity against Spodoptera littoralis, sprayed cotton leaf discs; conditions: foliar, 72 h, application rate 200 ppm, L1 larvae, 3 days after infestation, read-out: control in at least one of the three categories (mortality, anti-feedancy or growth inhibition)
Description: Example B1: Activity Against Spodoptera littoralis (Egyptian Cotton Leaf Worm)
Cotton leaf discs were placed on agar in 24-well microtiter plates and sprayed with aqueous test solutions prepared from 10′000 ppm DMSO stock solutions. After drying the leaf discs were infested with five L1 larvae. The samples were assessed for mortality, anti-feedant effect, and growth inhibition in comparison to untreated samples 3 days after infestation. Control of Spodoptera littoralis by a test sample is when at least one of mortality, anti-feedant effect, and growth inhibition is higher than the untreated sample.

[5] = system: Diabrotica Balteata (Corn Root Worm); test: Example B4: Activity against Diabrotica balteata, sprayed maize sprouts; conditions: 96 h, application rate 200 ppm, L2 larvae, 4 days after infestation, read-out: effect in at least one of the two categories (mortality or growth inhibition)
Description: Example B4: Activity Against Diabrotica Balteata (Corn Root Worm)
as §1, with “Maize sprouts, placed on an agar layer in 24-well” for “24-well”, “plates” for “plates with artificial diet”, “spraying.” for “pipetting.”, “(6” for “(10”, “10” for “15”, “4” for “5”

[6] = system: Spodoptera littoralis (Egyptian Cotton Leaf Worm); test: Example B2: Activity against Spodoptera littoralis, systemic via lettuce roots in agar; conditions: 144 h, application rate 12.5 ppm, 6 days after infestation, read-out: control in at least one of the three categories (mortality, anti-feedancy or growth inhibition)
Description: Example B2: Activity Against Spodoptera littoralis (Egyptian Cotton Leaf Worm)
Test compounds were applied by pipette from 10′000 ppm DMSO stock solutions into 24-well plates and mixed with agar. Lettuce seeds were placed on the agar and the multi well plate was closed by another plate which contains also agar. After 7 days the roots have absorbed the compound and the lettuce has grown into the lid plate. The lettuce leafs were now cut off into the lid plate. Spodoptera eggs were pipetted through a plastic stencil on a humid gel blotting paper and the plate closed with it.
The samples were assessed for mortality, anti-feedant effect and growth inhibition in comparison to untreated samples 6 days after infestation.

[7] = system: Myzus persicae (Green Peach Aphid); test: Example B8: Activity against Myzus persicae, sprayed sunflower leaf discs; conditions: foliar, 144 h, application rate 200 ppm, aphid population of mixed ages, 6 days after infestation
Description: Example B8: Activity Against Myzus persicae (Green Peach Aphid)
Sunflower leaf discs were placed on agar in a 24-well microtiter plate and sprayed with aqueous test solutions prepared from 10′000 ppm DMSO stock solutions. After drying, the leaf discs were infested with an aphid population of mixed ages. The samples were assessed for mortality 6 days after infestation.

CCS(=O)(=O)c1cc(-c2ccc(C(F)(F)F)cc2)cnc1C(=O)N(C)c1nnc(C(F)(F)F)s1 [Compound P4]
≥ 80%: mortality at 200 ppm [1] | percent effect (mortality or growth inhibition) at 200 ppm [2] | mortality at 200 ppm [3] | percent control (mortality, anti-feedant effect or growth inhibition) at 200 ppm [4] | percent effect (mortality or growth inhibition) at 200 ppm [5]

CCSc1cc(-n2ccc(C(F)(F)F)n2)cnc1C(=O)Nc1nnc(C(F)(F)C(F)(F)F)s1 [Compound P6]
≥ 80%: percent control (mortality, anti-feedant effect or growth inhibition) at 12.5 ppm [6]

CCS(=O)(=O)c1cc(-c2ccc(F)cc2F)cnc1C(=O)N(C)c1nnc(C(F)(F)F)s1 [Compound P25]
≥ 80%: percent control (mortality, anti-feedant effect or growth inhibition) at 12.5 ppm [6] | mortality at 200 ppm [1] | mortality at 200 ppm [7] | percent effect (mortality or growth inhibition) at 200 ppm [2] | mortality at 200 ppm [3] | percent control (mortality, anti-feedant effect or growth inhibition) at 200 ppm [4] | percent effect (mortality or growth inhibition) at 200 ppm [5]

CCS(=O)(=O)c1cc(-c2cccc(F)c2)cnc1C(=O)N(C)c1nnc(C(F)(F)F)s1 [Compound P26]
≥ 80%: percent control (mortality, anti-feedant effect or growth inhibition) at 12.5 ppm [6] | mortality at 200 ppm [7] | percent effect (mortality or growth inhibition) at 200 ppm [2] | mortality at 200 ppm [3] | percent control (mortality, anti-feedant effect or growth inhibition) at 200 ppm [4] | percent effect (mortality or growth inhibition) at 200 ppm [5]

CCS(=O)(=O)c1cc(-c2ccc(C#N)cc2)cnc1C(=O)N(C)c1nnc(C(F)(F)F)s1 [Compound P28]
≥ 80%: percent control (mortality, anti-feedant effect or growth inhibition) at 12.5 ppm [6] | mortality at 200 ppm [1] | mortality at 200 ppm [7] | percent effect (mortality or growth inhibition) at 200 ppm [2] | mortality at 200 ppm [3] | percent control (mortality, anti-feedant effect or growth inhibition) at 200 ppm [4] | percent effect (mortality or growth inhibition) at 200 ppm [5]

CCS(=O)(=O)c1cc(-c2cccc3c2OC(F)(F)O3)cnc1C(=O)N(C)c1nnc(C(F)(F)F)s1 [Compound P29]
≥ 80%: percent control (mortality, anti-feedant effect or growth inhibition) at 12.5 ppm [6] | mortality at 200 ppm [7] | percent effect (mortality or growth inhibition) at 200 ppm [2] | mortality at 200 ppm [3] | percent control (mortality, anti-feedant effect or growth inhibition) at 200 ppm [4] | percent effect (mortality or growth inhibition) at 200 ppm [5]

CCS(=O)(=O)c1cc(-c2cccc(SC)c2)cnc1C(=O)N(C)c1nnc(C(F)(F)F)s1 [Compound P30]
≥ 80%: mortality at 200 ppm [1] | mortality at 200 ppm [7] | percent effect (mortality or growth inhibition) at 200 ppm [2] | mortality at 200 ppm [3] | percent control (mortality, anti-feedant effect or growth inhibition) at 200 ppm [4] | percent effect (mortality or growth inhibition) at 200 ppm [5]

CCS(=O)(=O)c1cc(-c2cccc(OC(F)(F)F)c2)cnc1C(=O)N(C)c1nnc(C(F)(F)F)s1 [Compound P31]
≥ 80%: percent control (mortality, anti-feedant effect or growth inhibition) at 12.5 ppm [6] | percent effect (mortality or growth inhibition) at 200 ppm [2] | mortality at 200 ppm [3] | percent control (mortality, anti-feedant effect or growth inhibition) at 200 ppm [4] | percent effect (mortality or growth inhibition) at 200 ppm [5]

CCS(=O)(=O)c1cc(-c2cc(F)cc(F)c2)cnc1C(=O)N(C)c1nnc(C(F)(F)F)s1 [Compound P35]
≥ 80%: percent control (mortality, anti-feedant effect or growth inhibition) at 12.5 ppm [6] | mortality at 200 ppm [1] | mortality at 200 ppm [7] | percent effect (mortality or growth inhibition) at 200 ppm [2] | mortality at 200 ppm [3] | percent control (mortality, anti-feedant effect or growth inhibition) at 200 ppm [4] | percent effect (mortality or growth inhibition) at 200 ppm [5]

CCS(=O)(=O)c1cc(-c2cccc(C(F)(F)F)c2)cnc1C(=O)N(C)c1nnc(C(F)(F)F)s1 [Compound P37]
≥ 80%: mortality at 200 ppm [1] | percent effect (mortality or growth inhibition) at 200 ppm [2] | mortality at 200 ppm [3] | percent control (mortality, anti-feedant effect or growth inhibition) at 200 ppm [4] | percent effect (mortality or growth inhibition) at 200 ppm [5]

CCS(=O)(=O)c1cc(-c2nccc(C(F)(F)F)n2)cnc1C(=O)N(C)c1nnc(C(F)(F)F)s1 [Compound P41]
≥ 80%: percent control (mortality, anti-feedant effect or growth inhibition) at 12.5 ppm [6] | mortality at 200 ppm [1] | mortality at 200 ppm [7] | percent effect (mortality or growth inhibition) at 200 ppm [2] | mortality at 200 ppm [3] | percent control (mortality, anti-feedant effect or growth inhibition) at 200 ppm [4] | percent effect (mortality or growth inhibition) at 200 ppm [5]

CCS(=O)(=O)c1cc(-c2cc(Cl)ccn2)cnc1C(=O)N(C)c1nnc(C(F)(F)F)s1 [Compound P42]
≥ 80%: percent control (mortality, anti-feedant effect or growth inhibition) at 12.5 ppm [6] | mortality at 200 ppm [7] | percent effect (mortality or growth inhibition) at 200 ppm [2] | mortality at 200 ppm [3] | percent control (mortality, anti-feedant effect or growth inhibition) at 200 ppm [4] | percent effect (mortality or growth inhibition) at 200 ppm [5]

CCS(=O)(=O)c1cc(-c2ncccn2)cnc1C(=O)N(C)c1nnc(C(F)(F)F)s1 [Compound P43]
≥ 80%: percent control (mortality, anti-feedant effect or growth inhibition) at 12.5 ppm [6] | mortality at 200 ppm [7] | percent effect (mortality or growth inhibition) at 200 ppm [2] | mortality at 200 ppm [3] | percent control (mortality, anti-feedant effect or growth inhibition) at 200 ppm [4] | percent effect (mortality or growth inhibition) at 200 ppm [5]

CCS(=O)(=O)c1cc(-c2ncc(F)cc2F)cnc1C(=O)N(C)c1nnc(C(F)(F)F)s1 [Compound P44]
≥ 80%: percent control (mortality, anti-feedant effect or growth inhibition) at 12.5 ppm [6] | mortality at 200 ppm [1] | mortality at 200 ppm [7] | percent effect (mortality or growth inhibition) at 200 ppm [2] | mortality at 200 ppm [3] | percent control (mortality, anti-feedant effect or growth inhibition) at 200 ppm [4] | percent effect (mortality or growth inhibition) at 200 ppm [5]

CCS(=O)(=O)c1cc(-c2ncc(Cl)cc2Cl)cnc1C(=O)N(C)c1nnc(C(F)(F)F)s1 [Compound P47]
≥ 80%: percent control (mortality, anti-feedant effect or growth inhibition) at 12.5 ppm [6] | mortality at 200 ppm [1] | mortality at 200 ppm [7] | percent effect (mortality or growth inhibition) at 200 ppm [2] | mortality at 200 ppm [3] | percent control (mortality, anti-feedant effect or growth inhibition) at 200 ppm [4] | percent effect (mortality or growth inhibition) at 200 ppm [5]

CCS(=O)(=O)c1cc(-c2ncc(C(F)(F)F)cc2F)cnc1C(=O)N(C)c1nnc(C(F)(F)F)s1 [Compound P48]
≥ 80%: percent control (mortality, anti-feedant effect or growth inhibition) at 12.5 ppm [6] | percent effect (mortality or growth inhibition) at 200 ppm [2] | mortality at 200 ppm [3] | percent control (mortality, anti-feedant effect or growth inhibition) at 200 ppm [4] | percent effect (mortality or growth inhibition) at 200 ppm [5]

CCS(=O)(=O)c1cc(-c2ccccn2)cnc1C(=O)N(C)c1nnc(C(F)(F)F)s1 [Compound P54]
≥ 80%: percent control (mortality, anti-feedant effect or growth inhibition) at 12.5 ppm [6] | mortality at 200 ppm [7] | percent effect (mortality or growth inhibition) at 200 ppm [2] | mortality at 200 ppm [3] | percent control (mortality, anti-feedant effect or growth inhibition) at 200 ppm [4] | percent effect (mortality or growth inhibition) at 200 ppm [5]

CCS(=O)(=O)c1cc(-c2ncc(Cl)cn2)cnc1C(=O)N(C)c1nnc(C(F)(F)F)s1 [Compound P62]
≥ 80%: mortality at 200 ppm [7] | percent effect (mortality or growth inhibition) at 200 ppm [2] | mortality at 200 ppm [3] | percent control (mortality, anti-feedant effect or growth inhibition) at 200 ppm [4] | percent effect (mortality or growth inhibition) at 200 ppm [5]

CCS(=O)(=O)c1cc(-c2ccc(C#N)cn2)cnc1C(=O)N(C)c1nnc(C(F)(F)F)s1 [Compound P64, 5-(5-cyano-2-pyridyl)-3-ethylsulfonyl-N-methyl-N-[5-(trifluoromethyl)-1,3,4-thiadiazol-2-yl]pyridine-2-carboxamide]
≥ 80%: mortality at 200 ppm [7] | percent effect (mortality or growth inhibition) at 200 ppm [2] | mortality at 200 ppm [3] | percent control (mortality, anti-feedant effect or growth inhibition) at 200 ppm [4] | percent effect (mortality or growth inhibition) at 200 ppm [5]
